What was measured:
[1] = tested on: THP-1 monocytic leukemia cells; experiment: Cell viability/toxicity, THP-1; assay type: cell-based, Human; details: 48 h, serum-containing medium, 50 μM, data not shown
Experimental: (§1) Cell culture. Human monocytic leukemia THP-1, OCI-AML-3 acute myeloid leukemia and human HT1080 fibrosarcoma cells were cultured as described (Koivunen et al., 1999; Koivunen et al., 2001; Stefanidakis et al., 2003). The cell viability was measured using an 3-[4,5-dimethylthiazol-2-yl]-2,5-diphenyl tetrazolium bromide assay as described (Bjorklund et al., 2004).
(§2) We next evaluated the ability of DDGW peptide and the chemicals to compete with antibody binding to immobilized αM I domain-GST fusion. […] The epitope of this antibody is located in the β2 I-like domain (FIG. 4B). […] Before conducting cell-based experiments, we tested possible toxicity of the chemicals. The compounds were incubated with THP-1 monocytic leukemia and OCI-AML-3 acute myeloid leukemia cells for 48 h in serum-containing cell culture medium.

[2] = tested on: OCI-AML-3 acute myeloid leukemia cells; experiment: Cell viability/toxicity, OCI-AML-3; assay type: cell-based; details: 48 h, serum-containing medium, 50 μM, data not shown
Experimental: as §1, §2

THP-1 cells [3] = experiment: THP-1 transwell migration on LLG-C4-GST coating; assay type: cell-based, Human
Experimental: (§3) Cell adhesion and migration. Cell adhesion was performed as described (Koivunen et al., 2001). Briefly, THP-1 cells (50 000/well) were stimulated with 50 nM PDBu (4β-phorbol-12,13-dibutyrate, SigmaAldrich) and allowed to bind to the fibrinogen coated microtiter wells (10 μg/ml) in the presence or absence of compounds or DMSO in serum-free RPMI medium containing 0.1% BSA. Non-adherent cells were removed by gentle washing with PBS or 2.5 mM EDTA in PBS, and adherent cells were quantitated with a phosphatase assay (Koivunen et al., 2001). Alternatively, THP-1 cells were stimulated with 20 nM PDBu and allowed to adhere on uncoated plastic overnight. Nonadherent cells were removed by washing with PBS followed by six washes with 2.5 mM EDTA in PBS. Cell migration was done using transwells (5 μm pore size) coated with 40 μg/ml LLG-C4-GST or fibrinogen (Koivunen et al., 2001). THP-1 and OCI-AML-3 cells (50 000 cells/100 μl) were allowed to migrate overnight in 10% FBS/RPMI medium in the presence or absence of peptides or compounds and stimulating cell migration with 40 nM PDBu. Gelatinase-selective inhibitor I (InhI) at a 50 μM concentration (Calbiochem) was used to evaluate the level of gelatinase-dependent migration on fibrinogen. Migrated cells were stained with crystal violet and counted (Koivunen et al., 2001). Migration of HT1080 cells on serum coated transwells was conducted as described (Koivunen et al., 1999).

THP-1 cells [4] = experiment: THP-1 transwell migration on fibrinogen; assay type: cell-based, Human; details: 25 μM, 40 nM PDBu
Experimental: as §3, with “Migration of HT1080 cells on serum coated transwells was conducted as described (Koivunen et al., 1999).” left out

OCI-AML-3 cells [5] = experiment: OCI-AML-3 transwell migration on fibrinogen; assay type: cell-based; details: 25 μM, 40 nM PDBu
Experimental: as §3, with “Migration of HT1080 cells on serum coated transwells was conducted as described (Koivunen et al., 1999).” left out

αM I domain = biological target: T1, αM I domain (Homo sapiens, UniProt P11215); experiment: Inhibition of antibody binding to immobilized αM I domain-GST fusion; details: for inhibition at 50 µM: read-out: inhibition of mAb LM2/1 binding
T1 construct: immobilizing 20 ng/well recombinant αM I domain-GST fusion in 96-well plates
Experimental: (§4) Inhibition of antibody binding to the integrins. The αM I domain or purified αMβ2 integrin (50 ng/well) were coated on microtiter wells followed by saturation of the wells with 1% BSA in PBS/0.05% Tween20. The DDGW peptide or the compounds at concentrations indicated were preincubated for 30 minutes with the integrin, followed by addition of the antibodies LM2/1, MEM170, OKM-10, IB4 or a control IgG at a 1 μg/ml final concentration. The antibodies LM2/1 and MEM170 recognize the αM integrin I domain, whereas the epitope for OKM-10 is located outside the αM I domain (Koivunen et al., 2001; Li et al., 1995; Stefanidakis et al., 2003). The antibodies were incubated for 45 minutes followed by detection of the bound antibodies with a peroxidase conjugated anti-mouse antibody.

αM I domain-GST fusion = biological target: T2, αM I domain-GST fusion (Homo sapiens, UniProt P11215); experiment: DDGW-phage binding competition assay; details: dilution series 10 μM to 150 nM; mean of three independent experiments; read-out: IC50 for the inhibition of DDGW-phage binding to the αM I domain
T2 construct: immobilizing 20 ng/well recombinant αM I domain-GST fusion in 96-well plates
Experimental: Screening of the compound library. A combinatorial library of 10 000 small molecules was purchased from ChemBridge (San Diego, Calif.). A competition assay with the DDGW peptide bearing phage was set up by immobilizing 20 ng/well recombinant αM I domain-GST fusion in 96-well plates (Michishita et al., 1993). The compounds were used in pools comprising eight compounds, each at a 5 μM concentration and DMSO at a 1.25% concentration. After preincubation of the compounds in the wells, DDGW phage was added (3×10^8 transducing units/well). As controls, soluble DDGW peptide and a control peptide, and an unrelevant phage were included in every plate. Phage binding was detected with an anti-phage antibody as described (Bjorklund et al., 2004). Pools with inhibitory activity were re-tested as single compounds. The DDGW-phage inhibiting activity of these hits at a 10 μM concentration is shown in supplementary data. To calculate the IC50 values for the compounds, dilution series from the DDGW peptide and compounds were made (10 μM to 150 nM) and DDGW phage binding was measured. No inhibitor (DMSO as a vehicle) was used as 100% binding after subtracting the background value obtained with an irrelevant control phage.

αM I domain / proMMP-9 = biological target: T3, αM I domain / proMMP-9 (Homo sapiens, UniProt P11215); experiment: proMMP-9 binding to the αM integrin I domain; details: 10 μM
T3 construct: Soluble αM integrin I domain-GST fusion (2.5 μg/ml) was added; made in house
Experimental: proMMP-9 and fibrinogen binding to the αM integrin I domain. […] The resulting MMP-9 with this mutation is structurally identical to the wild type protein (Rowsell et al., 2002). ProMMP-9-ΔHC-E^402Q, intact proMMP-9 or fibrinogen (100 ng/well) was coated on microtiter wells in TBS followed by saturation of the wells with 1% BSA in PBS/0.05% Tween20. Soluble αM integrin I domain-GST fusion (2.5 μg/ml) was added in the presence or absence of peptides or compounds in 0.1% BSA/TBS/0.05% Tween20/1 mM CaCl2/1 mM MgCl2, and incubated for one hour. In some experiments 10 mM CaCl2 or 10 mM MgCl2 were used instead of 1 mM CaCl2/1 mM MgCl2. Bound GST fusion was detected with anti-GST antibody (1:2000 dilution) and peroxidase-conjugated anti-goat antibody (1:2000 dilution).

αMβ2 integrin = αMβ2 integrin (Homo sapiens, UniProt P11215); experiment: Inhibition of antibody binding to purified αMβ2 integrin; details: 25 μM; epitope in β2 I-like domain
Experimental: as §4

αL I domain = biological target: T4, αL I domain (Homo sapiens, UniProt P20701); experiment: Antibody binding to αL I domain
T4 sequence (P20701 156-327 limits assumed): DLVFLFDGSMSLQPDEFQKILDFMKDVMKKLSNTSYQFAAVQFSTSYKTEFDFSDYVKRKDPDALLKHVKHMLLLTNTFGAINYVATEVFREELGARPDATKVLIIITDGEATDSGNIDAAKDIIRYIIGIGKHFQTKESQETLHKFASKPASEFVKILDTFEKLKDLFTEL

THP-1 cells [6] = experiment: THP-1 adhesion to uncoated plastic; assay type: cell-based, Human; details: 20 nM PDBu; 25 μM compounds; overnight
Experimental: as §3, with “Migration of HT1080 cells on serum coated transwells was conducted as described (Koivunen et al., 1999).” left out

THP-1 cells [7] = experiment: THP-1 adhesion to fibrinogen; assay type: cell-based, Human
Experimental: as §3, with “Migration of HT1080 cells on serum coated transwells was conducted as described (Koivunen et al., 1999).” left out

[8] = tested on: HT1080 fibrosarcoma cells; experiment: HT1080 migration on serum coated transwells; assay type: cell-based, human
Experimental: as §3, with “Migration of HT1080 cells on serum coated transwells was conducted as described (Koivunen et al., 1999).” left out

OCI-AML-3 cells [9] = experiment: Pericellular gelatinase-dependent uPAR cleavage; assay type: cell-based; details: 20 μM; PDBu stimulated; 48 hours
Experimental: Cellular cleavage of the urokinase-plasminogen activator receptor. Pericellular gelatinase-dependent uPAR cleavage was performed as described (Bjorklund et al., 2004). Briefly, OCI-AML-3 cells were stimulated with PDBu or left untreated and cultured for 48 hours in the presence of 20 μM IMB-10, the gelatinase-selective inhibitor (InhI) or vehicle (DMSO). uPAR and the cleaved form of uPAR D2+3 was detected with western blotting using a polyclonal antibody to uPAR (399R, American Diagnostica).

[10] = tested on: leukocytes emigrated into the peritoneum; experiment: Thioglycollate-induced peritonitis, leukocyte emigration in vivo; design: species or system mice; details: i.v.
Experimental: Neutrophil emigration in vivo. The mouse experiments were approved by the ethical committee for the animal experiments at the University of Helsinki. Inflammation was induced in BALB/cOlaHsd female maintained in the Viikki Laboratory Animal Centre by injecting 1 ml 4% thioglycollate broth in PBS i.p. followed by intravenous injections of chemicals (200 μl at a 20, 5 or 1 μg/ml concentration) or PBS after five minutes. Cells emigrated in the peritoneum after 3 or 24 h were counted using a hemocytometer. Statistical significance between groups in the peritonitis model was calculated with one-way ANOVA and found differences were analyzed by Bonferroni pairwise multiple comparison tests. Results with p<0.01 were deemed significant.

With CCN1C(=O)/C(=C\c2ccc(OCCCOc3cc(C)cc(C)c3)c(OC)c2)SC1=S [IMB-2, (E)-5-(4-(3-(3,5-dimethylphenoxy)propoxy)-3-methoxybenzylidene)-3-ethyl-2-thioxothiazolidin-4-one] as the compound, how does the “toxicity / effect on cell proliferation” value [1] read?
Its value is “no significant effect”.

What about the “toxicity / effect on cell proliferation” value [2] of the same compound?
Its value is “no significant effect”.

And the “inhibition of cell migration on LLG-C4-GST” value (shortened to “inhibition of cell migration”) (THP-1 cells [3]; 25 μM)?
The value was “did not siginificantly inhibit cell migration”.

And the “inhibition of cell migration” value (THP-1 cells [3]; 100 μM, not shown)?
Its value is “became inhibitory”.

What about the “inhibition of migration on fibrinogen-coated transwells” value (from here on “inhibition of migration”) (THP-1 cells [4]) of the same compound?
Its value is “less active”.

What about the “inhibition of migration” value (OCI-AML-3 cells [5]) of the same compound?
Its value is “less active”.

O=C1/C(=C/c2ccc(-c3cccc([N+](=O)[O-])c3)o2)SC(=S)N1Cc1ccccc1 [IMB-6, (Z)-3-benzyl-5-((5-(3-nitrophenyl)furan-2-yl)methylene)-2-thioxothiazolidin-4-one] was tested. Which inhibition at 50 µM (αM I domain) did it give?
The inhibition at 50 µM was 75%.

What about the “toxicity / effect on cell proliferation” value [1] of the same compound?
Its value is “toxic”.

What about the “toxicity / effect on cell proliferation” value [2] of the same compound?
Its value is “toxic”.

With Cc1ccccc1N1C(=O)/C(=C/C=C/c2ccccc2)SC1=S [IMB-10, (5Z)-5((E)-3-phenylallylidene)-2-thioxo-3-o-tolylthiazolidin-4-one] as the compound, how does the IC50 (αM I domain-GST fusion) read?
Its IC50 is 400 ± 200 nM.

And the “αM I domain binding to proMMP-9-E402Q-ΔHC” value (αM I domain / proMMP-9; 10 mM Ca2+)?
The value was “nearly completely antagonized”.

And the “αM I domain binding to proMMP-9-E402Q-ΔHC” value (αM I domain / proMMP-9; 10 mM Mg2+)?
The value was “strong binding”.

And the “αM I domain binding to proMMP-9-E402Q-ΔHC” value (αM I domain / proMMP-9; equimolar Ca2+ and Mg2+)?
Its value is “intermediate”.

And the inhibition at 50 µM (αM I domain)?
Its inhibition at 50 µM is 75%.

What about the “inhibition of mAb IB4 binding to purified αMβ2” value (αMβ2 integrin) of the same compound?
The value was “inhibited”.

What about the “binding of TS1/22 and MEM83 antibodies to αL I domain” value (αL I domain) of the same compound?
Its value is “similarly affected”.

And the “toxicity / effect on cell proliferation” value [1]?
The value was “no significant effect”.

And the “toxicity / effect on cell proliferation” value [2]?
Its value is “no significant effect”.

What about the “adhesion to plastic after washing with 2.5 mM EDTA” value (THP-1 cells [6]) of the same compound?
Its value is “resisted detachment and remained adherent”.

What about the “adhesion to fibrinogen after washings with EDTA” value (THP-1 cells [7]; 50 nM PDBu, 25 μM, 2.5 mM EDTA) of the same compound?
The value was “more resistant”.

What about the “cell adhesion in the absence of phorbol ester activation” value (THP-1 cells [7]; no phorbol ester, data not shown) of the same compound?
The value was “did not increase cell adhesion”.

And the “inhibition of cell migration” value (THP-1 cells [3]; 25 μM)?
Its value is “potently inhibited cell migration”.

What about the “inhibition of migration” value (THP-1 cells [4]) of the same compound?
The value was “completely inhibited migration”.

And the “inhibition of migration” value (OCI-AML-3 cells [5])?
Its value is “completely inhibited migration”.

And the “β2 integrin-independent migration of HT1080 cells” value [8]?
The value was “no effect”.

What about the “inhibition of uPAR cleavage (uPAR D2+3 form)” value (OCI-AML-3 cells [9]) of the same compound?
The value was “could not be inhibited”.

What about the “number of leukocytes emigrated into the peritoneum” value ([10]; after 24 hours) of the same compound?
Its value is “still low”.

What about the “number of leukocytes emigrated into the peritoneum” value ([10]; three hours after induction) of the same compound?
Its value is “dose-dependent decrease”.

With CC[C@H](C)C(=O)O[C@H]1C[C@@H](C)C=C2C=C[C@H](C)[C@H](CC[C@@H]3C[C@@H](O)CC(=O)O3)[C@H]21 [lovastatin, reference compound] as the compound, how does the “effect on antibody binding” value (αM I domain; DDGW peptide 100 μM, chemical competitors 50 μM) read?
The value was “only a marginal effect”.
